# Test results: patent publication US10639287B2, “Compounds for the treatment of mitochondrial diseases” (UNIVERSITE PARIS-SUD, priority 2014, dated 2020)
# Tests used:
# [1] = system: complex I in neuronal cybrids derived from a MELAS patient (m.3243A>G tRNA^Leu mutation); assay: Ratio of complex I/citrate synthase activities in MELAS neuronal cybrids; assay type: cell-based, human; settings: 1 μM or 300 nM, 48 hours
# Method: The mutant MELAS neuronal transmitochondrial line, which is the result of the fusion of the immortalised neuoroblastoma parental line SHSY-5Y with fibroblasts carrying the mutation m.3243A>G, was created in the laboratory of Prof. Procaccio.
# Neuronal cybrid lines carrying the MELAS mutation and the parental control line were grown in sterile culture flasks and incubated at 37° C. with 5% CO2 in a medium composed of DMEM with 1.5 g/L glucose, 2 mM L-glutamine and supplemented with 10% foetal bovine serum as well as uridine (5 μg/ml) and pyruvate (10 μg/mL). […]
# (§1) The MELAS neuronal cybrid line carrying the mutation seemingly in the homoplasmic state (i.e. reaching almost 100% MELAS mutation) and the SHSY-5Y parental control line were used for measurements of enzyme activities. […] These cell pellets were then analysed by spectrophotometry with measurement of the different mitochondrial biochemical activities, particularly the activity of citrate synthase and the activity of complex I of the respiratory chain. […]
# The enzymatic activities were measured according to the protocol described in Medjda et al, 2009 (Medja F, Allouche S, Frachon P, Jardel C, Malgat M, Mousson de Camaret B, Slama A, Lunardi J, Mazat J P, Lombès A. Development and implementation of standardized respiratory chain spectrophotometric assays for clinical diagnosis. Mitochondrion. 2009 September; 9(5):331-9).
# [2] = system: neuronal cybrids derived from a MELAS patient (m.3243A>G tRNA^Leu mutation); assay: Lactate production of MELAS neuronal cybrids; assay type: cell-based, human; settings: 1 μM or 300 nM, 48 hours
# Method: The increase in the lactate production is the result of a toxicity of the drug used, but also of a mitochondrial dysfunction (energy deficiency) present in MELAS syndrome.
# Neuronal cybrid lines carrying the MELAS mutation and the parental control line were grown in sterile culture flasks and incubated at 37° C. with 5% CO2 in a medium composed of DMEM with 1.5 g/L glucose, 2 mM L-glutamine and supplemented with 10% foetal bovine serum as well as uridine (5 μg/ml) and pyruvate (10 μg/mL). The cells were harvested by trypsinisation in exponential phase and were used for subsequent biochemical or molecular mitochondrial analyses.
# as §1
# The lactate concentration of the culture medium for neuronal cybrid and parental cells was determined by spectrophotometry using an enzymatic kit (Bohringer) on a Hitachi-Roche apparatus (Roche Diagnostics GmbH). […]
smiles,measurement,setting,value
CCCCCCCN(CC)CCCC(O)c1ccc(NS(C)(=O)=O)cc1 (centres unmarked) [ibutilide],activity of complex I (ratio complex I/citrate synthase),[1],increased
same,production of lactate,[2],decreased
